Experimental data from patent EP2545917B1, “NOVEL EP4 AGONIST” (Kaken Pharmaceutical Co., Ltd., priority 2010, dated 2011).

Experiments:
[1] = Plasma pharmacokinetics after intravenous administration to rats; format: in vivo; details: male, rat
Protocol: To verify the in vivo metabolic stability of the compound of the present invention, plasma pharmacokinetics was evaluated after intravenous administration to rats. Male rats (6 weeks old, body weight 160 - 180 g) were acclimated for 1 week, and the animals diagnosed healthy were used. A mixture of compound F and compound J of the present invention described in Table 1 (F:J = 52:41), and a mixture of carboxylate forms of compound F and compound J (F:J = 54:34), and compound F (synthesized in Example 9) were dissolved in a small amount of ethanol and physiological saline was added to prepare test compound solutions. The test compound solutions were instantaneously administered intravenously at 1 mL/kg from the femoral vein of non-fasting rats under light ether anesthesia. Venous blood was drawn from the tail vein 5, 15, 30, 45, 60, 90 and 120 min after administration. The blood was mixed with heparin and centrifuged (3000 rpm, 4°C, 15 min) to obtain plasma. The plasma compound concentration was determined by the internal standard method using LC-MS/MS. The determination range by this method was from 0.1 to 100 ng/mL. The compound concentrations obtained from each rat were analyzed in a model-independent way using a pharmacokinetics analysis software WinNonlin (ver.3.3), and average ± standard deviation of 3 animals for each group was obtained.

[2] = test system: dextran sodium sulfate-induced colitis; test: Prophylactic effect on dextran sodium sulfate-induced colitis model in mice (BALB/c); format: in vivo; details: 2.2 w/v% DSS
Protocol: Female BALB/c mice (6 weeks old, Japan SLC) were purchased, acclimated for 1 week and used for the study. Except the normal group, the mice were allowed to freely drink a dextran sodium sulfate (to be abbreviated as DSS, MP Biochemicals, M.W. 36,000 - 50,000, Lot No. 3439J) solution prepared to 2.2 w/v% for 9 days to induce colitis. Compound F was orally administered at doses of 0.1, 0.3 and 1 mg/kg, once a day, daily, from the start day of DSS drinking (day 0) to one day before autopsy (day 9). To the control group was orally administered a solvent (1 vol% ethanol solution) at 10 mL/kg in the same manner.
Thus, to determine the level of diarrhea, the stool was graded into 6 levels; normal (score 0), spherical stool being not less than 50% (score 1), banana-shaped stool being less than 50% (score 2), banana-shaped stool being not less than 50% (score 3), muddy stool (score 4), watery stool (score […]) (stool consistency score). The fecal occult blood (including proctorrhagia) was graded using fecal occult blood slide 5 Shionogi II (Shionogi & Co., Ltd.) into 6 levels; negative (no change of the slide color from yellow, score 0), weakly positive (slightly blue green, score 1), positive (blue green, score 2), moderately positive (clear blue green, score 3), strongly positive (instantaneous color change to dark blue with color developer, score 4), and proctorrhagia (score 5). The sum of the stool consistency score and occult blood score was defined as the stool score. Eight to 10 animals were used for each group, and the results were expressed as average ± standard deviation. On the day of autopsy, after laparotomy under ether anesthesia and blood collection, the mice were exsanguinated to death. Then the large intestines were dissected from just below the cecum to the anus and the length thereof was measured.

[3] = test system: CD4+CD25- T cell transfer colitis; test: Prophylactic effect on CD4+CD25- T cell transfer colitis model in mice; format: in vivo, C.B-17/Icr-scid mice; details: scid mice, oral 1 mg/kg once a day for 20 days
Protocol: Female BALB/cA Jcl mice, 6 weeks old, body weight 19 - 23 g (CLEA Japan, Inc.) and female C.B-17/Icr-scid mice (6 weeks old, CLEA Japan, Inc.) were purchased, acclimated for 1 week and used for the study. After laparotomy under ether anesthesia, BALB/cA Jcl mice were exsanguinated to death through the abdominal aorta and caudal vena cava, and the spleen was isolated. Splenocytes were prepared from the spleen and then CD4^+CD25^- T cells were prepared with a CD4^+ T cell Isolation Kit (No. 130-090-860, Milky Biotech Co., Ltd.) and CD25-Biotin antibody (No. 130-092-569, Milky Biotech Co., Ltd.). The cells were separated using the autoMACS Separator (Milky Biotech Co., Ltd.). The separated CD4^+CD25^- T cells were suspended in physiological phosphate buffer solution, and 2.5×10^5 cells per animal were intraperitoneally administered to C.B-17/Icr-scid mice to induce colitis. […] To the control group was orally administered a solvent (1 vol% ethanol solution) at 10 mL/kg. […] The fecal occult blood score was evaluated in the same manner as in Example 23. […] Eight to 10 mice were used for each group and the results were expressed as average.

SMILES: Cc1cccc([C@@H](C)[C@H](O)/C=C/[C@@H]2[C@@H]3[C@H](C[C@H]2O)O/C(=C\CCCc2nnn[nH]2)C3(F)F)c1 [Compound F, 4-[(Z)-(1S,5R,6R,7R)-6-[(1E,3R,4R)-3-hydroxy-4-(m-tolyl)-1-pentenyl]-7-hydroxy-2-oxa-4,4-difluoro-bicyclo[3.3.0]octan-3-ylidene]-1-(tetrazol-5-yl)butane]
- half-life ([1]; iv, 50 ug/kg): 1.92 ± 0.517 h
- half-life ([1]; iv, 300 ug/kg): 2.63 ± 0.25 h
- half-life ([1]; rats, intravenous, summary of Table 3): 1 to 2 h
- suppression of the increase in the stool score ([2]; oral 0.1 mg/kg once a day): suppressive tendency
- suppression of the increase in the stool score ([2]; oral 0.3 mg/kg once a day): significant
- suppression of the increase in the stool score ([2]; oral 1 mg/kg once a day): significant
- effect on shortening of the large intestine ([2]; oral 0.1, 0.3 and 1 mg/kg once a day): dose-dependent suppressive effect on shortening of the large intestine
- DAI score [3]: comprehensively superior to prednisolone
- effect on body weight decrease score [3]: prevented the increase in the body weight decrease score almost completely
